Like-named read-outs stand apart in the source and are kept apart here.
How the values were obtained:
[1] = cited from earlier work; for stability of the form (in words): as reported in US 2006/0287528 or US 2007/0021430; for conversion into crystalline sitagliptin phosphate monohydrate: US 2007/0021430
[2] = Solubility of sitagliptin phosphate in water and polar organic solvents; type: physicochemical
Source text: In a preferred aspect, Form V of sitagliptin phosphate may be prepared by slurring starting material, crude or pure sitagliptin phosphate, anhydrate or solvate, which can be obtained according to the procedures described in U.S. patent application 2005/0032804 with a polar organic solvent or a mixture of two or more polar organic solvents under heat. The sitagliptin phosphate is soluble in water, but not soluble in polar organic solvents. The preferred polar organic solvent is methanol or acetone. The concentration of sitagliptin phosphate within the solution may range from about 0.1% by weight to the saturation point. This concentration will, of course, vary depending upon the temperature at which the co-solvent solution is held, with warmer temperatures generally allowing for the preparation of more concentrated solutions of sitagliptin phosphate. Preferably, the concentration (w/w %) of sitagliptin phosphate starting material in solution is about 0.5-15%, preferably about 1-10%, more preferably about 1.5-5%. The volume ratio of water to methanol or acetone is about 1:0.1-200, preferably about 1:2-30, more preferably about 1:3-10, most preferably about 1:4-6. […]

[3] = Thermal phase stability of Form V on heating; type: physicochemical; conditions: heating up to 41° C.
Source text: Additionally, Form V has lower water content, good material flow characteristic and better chemical stability.

[4] = Stability studies of Form V bulk material and tablets on storage, stability-indicating HPLC; type: physicochemical; conditions: bulk material
Protocol: The stability of Form V of sitagliptin phosphate bulk material and tablets is assessed by storing samples for up to 12 weeks at 25° C./60% RH or up to 3 weeks at 40° C./75% RH. Changes are monitored using a stability-indicating HPLC method. Results were calculated by normalized peak area (npa). Degradants are identified by comparison of their relative retention times against impurity standards.

In the case of `N[C@@H](CC(=O)N1CCn2c(nnc2C(F)(F)F)C1)Cc1cc(F)c(F)cc1F.O=P(O)(O)O` [Form II], the “stability of the form (in words)” value [1] is listed as “metastable” and the “time to convert to anhydrous Form I or Form III or mixtures thereof” value ([1]; at about 45° C., US 2006/0287528) is listed as “about 2 hours”.
In the case of `N[C@@H](CC(=O)N1CCn2c(nnc2C(F)(F)F)C1)Cc1cc(F)c(F)cc1F.O=P(O)(O)O` [ethanol solvate], the “stability of the form (in words)” value [1] is listed as “not a stable form”.
For `N[C@@H](CC(=O)N1CCn2c(nnc2C(F)(F)F)C1)Cc1cc(F)c(F)cc1F.O=P(O)(O)O` [sitagliptin phosphate, dihydrogenphosphate salt of (2R)-4-oxo-4-[3-(trifluoromethyl)-5,6-dihydro[1,2,4]triazolo[4,3-α]pyrazin-7(8H)yl]-1-(2,4,5-trifluorophenyl)butan-2-amine], the “solubility in polar organic solvents” value ([2]; polar organic solvents (e.g. methanol, acetone)) was “not soluble” and the solubility in water ([2]; water) was “soluble”.
For `N[C@@H](CC(=O)N1CCn2c(nnc2C(F)(F)F)C1)Cc1cc(F)c(F)cc1F.O=P(O)(O)O` [Form V, (2R)-4-oxo-4-[3-(trifluoromethyl)-5,6-dihydro[1,2,4]triazolo[4,3-α]pyrazin-7(8H)yl]-1-(2,4,5-trifluorophenyl)butan-2-amine dihydrogenphosphate], the “phase transformation on heating” value [3] was “does not undergo a phase transformation”, the “time for which polymorph (phase) and chemical stability was demonstrated” value ([4]; elevated temperature and humidity (40° C./75%)) was “over 3 weeks” and the “time stable with respect to polymorphic form (phase) stability and formation of known and unknown degradants” value ([4]; stored under normal conditions of temperature and humidity) was “over 3 months”.
For `N[C@@H](CC(=O)N1CCn2c(nnc2C(F)(F)F)C1)Cc1cc(F)c(F)cc1F.O=P(O)(O)O` [Form IV], the “conversion into crystalline sitagliptin phosphate monohydrate” value ([1]; ambient conditions) is given as “slowly”, the “stability of the form (in words)” value [1] is given as “metastable” and the “conversion into crystalline sitagliptin phosphate monohydrate” value ([1]; high relative humidity (98%) at room temperature) is given as “rapidly”.
For `N[C@@H](CC(=O)N1CCn2c(nnc2C(F)(F)F)C1)Cc1cc(F)c(F)cc1F.O=P(O)(O)O` [Form III], the “temperature below which the form is stable” value ([1]; US 2006/0287528) is given as “below 34 °C”.
For `N[C@@H](CC(=O)N1CCn2c(nnc2C(F)(F)F)C1)Cc1cc(F)c(F)cc1F.O=P(O)(O)O` [Form I], the “conversion on grinding or compaction” value ([1]; grinding or compaction, US 2006/0287528) is given as “can be converted into Form III”.
